ChEMBL document CHEMBL1909294, “Translating clinical findings into knowledge in drug safety evaluation--drug induced liver injury prediction system (DILIps)” (PLoS Comput Biol, 2011)

What was measured:
Hepatotoxicity [1] = tested on: Hepatotoxicity;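 as to HepSE elevated liver function tests: hepatic side effect score for raised liver function tests, as recorded in the DILIps training set used for predicting drug-induced liver injury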;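 as to HepSE hepatitis: Hepatitis-related hepatic side effect score taken from the training data of DILIps, a prediction system for drug-induced liver injury; call rule not given here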;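 as to HepSE hepatomegaly: hepatic side effect score for hepatomegaly, taken from the training set of the DILIps drug-induced liver injury prediction system; call rule not given here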;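 as to HepSE jaundice: Jaundice-related hepatic side-effect score drawn from the training data of the DILIps (drug-induced liver injury prediction system); call rule not given here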;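 as to HepSE liver fatty: hepatic side effect score for fatty liver, taken from the DILIps training set for predicting drug-induced liver injury; call rule not given here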;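 as to HepSE liver function tests abnormal: hepatic side effect score taken from the DILIps (drug-induced liver injury prediction system) training data, here covering abnormal liver function test findings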
Hepatotoxicity [2] = tested on: Hepatotoxicity; remark: listed apart in the source;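 as to HepSE elevated liver function tests: hepatic side effect score for raised liver function tests, as recorded in the DILIps training set used for predicting drug-induced liver injury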;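 as to HepSE hepatitis: Hepatitis-related hepatic side effect score taken from the training data of DILIps, a prediction system for drug-induced liver injury; call rule not given here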;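 as to HepSE hepatomegaly: hepatic side effect score for hepatomegaly, taken from the training set of the DILIps drug-induced liver injury prediction system; call rule not given here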;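 as to HepSE jaundice: Jaundice-related hepatic side-effect score drawn from the training data of the DILIps (drug-induced liver injury prediction system); call rule not given here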;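 as to HepSE liver fatty: hepatic side effect score for fatty liver, taken from the DILIps training set for predicting drug-induced liver injury; call rule not given here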;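 as to HepSE liver function tests abnormal: hepatic side effect score taken from the DILIps (drug-induced liver injury prediction system) training data, here covering abnormal liver function test findings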
Hepatotoxicity [3] = tested on: Hepatotoxicity; remark: listed apart in the source;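 as to HepSE elevated liver function tests: hepatic side effect score for raised liver function tests, as recorded in the DILIps training set used for predicting drug-induced liver injury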;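 as to HepSE hepatitis: Hepatitis-related hepatic side effect score taken from the training data of DILIps, a prediction system for drug-induced liver injury; call rule not given here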;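 as to HepSE jaundice: Jaundice-related hepatic side-effect score drawn from the training data of the DILIps (drug-induced liver injury prediction system); call rule not given here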;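 as to HepSE liver fatty: hepatic side effect score for fatty liver, taken from the DILIps training set for predicting drug-induced liver injury; call rule not given here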;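 as to HepSE liver function tests abnormal: hepatic side effect score taken from the DILIps (drug-induced liver injury prediction system) training data, here covering abnormal liver function test findings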
Hepatotoxicity [4] = tested on: Hepatotoxicity; remark: listed apart in the source;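 as to HepSE elevated liver function tests: hepatic side effect score for raised liver function tests, as recorded in the DILIps training set used for predicting drug-induced liver injury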;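 as to HepSE hepatitis: Hepatitis-related hepatic side effect score taken from the training data of DILIps, a prediction system for drug-induced liver injury; call rule not given here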;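 as to HepSE jaundice: Jaundice-related hepatic side-effect score drawn from the training data of the DILIps (drug-induced liver injury prediction system); call rule not given here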;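 as to HepSE liver fatty: hepatic side effect score for fatty liver, taken from the DILIps training set for predicting drug-induced liver injury; call rule not given here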;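 as to HepSE liver function tests abnormal: hepatic side effect score taken from the DILIps (drug-induced liver injury prediction system) training data, here covering abnormal liver function test findings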
Hepatotoxicity [5] = tested on: Hepatotoxicity; remark: listed apart in the source
Hepatotoxicity [6] = tested on: Hepatotoxicity; remark: listed apart in the source
Hepatotoxicity [7] = tested on: Hepatotoxicity; remark: listed apart in the source
Hepatotoxicity [8] = tested on: Hepatotoxicity; remark: listed apart in the source
Hepatotoxicity [9] = tested on: Hepatotoxicity; remark: listed apart in the source
Hepatotoxicity [10] = tested on: Hepatotoxicity; remark: listed apart in the source
Hepatotoxicity [11] = tested on: Hepatotoxicity; remark: listed apart in the source
Hepatotoxicity [12] = tested on: Hepatotoxicity; remark: listed apart in the source
Hepatotoxicity [13] = tested on: Hepatotoxicity; remark: listed apart in the source
Hepatotoxicity [14] = tested on: Hepatotoxicity; remark: listed apart in the source

Molecule	HepSE_jaundice (Hepatotoxicity [1])	HepSE_liver function tests abnormal (Hepatotoxicity [2])	HepSE_liver fatty (Hepatotoxicity [3])	HepSE_hepatitis (Hepatotoxicity [4])	HepSE_elevated liver function tests (Hepatotoxicity [5])	HepSE_hepatomegaly (Hepatotoxicity [6])	HepSE_Combined Scores (Hepatotoxicity [7])	HepSE_cholecystitis (Hepatotoxicity [8])	HepSE_cirrhosis (Hepatotoxicity [9])	HepSE_bilirubinemia (Hepatotoxicity [10])	HepSE_hepatic failure (Hepatotoxicity [11])	HepSE_hepatic necrosis (Hepatotoxicity [12])	HepSE_cholelithiasis (Hepatotoxicity [13])	HepSE_liver disease (Hepatotoxicity [14])
CO[C@H]1O[C@H](COS(=O)(=O)[O-])[C@@H](O[C@@H]2O[C@@H](C(=O)[O-])[C@@H](O[C@H]3O[C@H](COS(=O)(=O)[O-])[C@@H](O[C@@H]4O[C@H](C(=O)[O-])[C@@H](O[C@H]5O[C@H](COS(=O)(=O)[O-])[C@@H](O)[C@H](O)[C@H]5NS(=O)(=O)[O-])[C@H](O)[C@H]4O)[C@H](OS(=O)(=O)[O-])[C@H]3NS(=O)(=O)[O-])[C@H](O)[C@H]2OS(=O)(=O)[O-])[C@H](O)[C@H]1NS(=O)(=O)[O-].[Na+].[Na+].[Na+].[Na+].[Na+].[Na+].[Na+].[Na+].[Na+].[Na+] [FONDAPARINUX SODIUM]	0	0	0	0	0	0	1	0	0	0	0	0	0	1
CC1(C)O[C@@H]2C[C@H]3[C@@H]4CCC5=CC(=O)C=C[C@]5(C)[C@H]4[C@@H](O)C[C@]3(C)[C@]2(C(=O)CO)O1 [DESONIDE]	0	0	0	0	0	0	0	0	0	0	0	0	0	0
CNNCc1ccc(C(=O)NC(C)C)cc1 [PROCARBAZINE]	1	0	0	0	0	0	1	0	0	0	0	0	0	0
O=C(O)CCC(=O)O.O=C(O[C@H]1CN2CCC1CC2)N1CCc2ccccc2[C@@H]1c1ccccc1 [SOLIFENACIN SUCCINATE]	0	1	0	0	0	0	1	0	0	0	0	0	0	0
NS(=O)(=O)c1cc2c(cc1Cl)N=CNS2(=O)=O [CHLOROTHIAZIDE]	1	0	0	0	0	0	1	0	0	0	0	0	0	0
IVERMECTIN	0	0	0	0	0	0	0	0	0	0	0	0	0	0
CCCCC[C@H](O)CC[C@@H]1[C@H]2Cc3cccc(OCC(=O)O)c3C[C@H]2C[C@H]1O [TREPROSTINIL]	0	0	0	0	0	0	0	0	0	0	0	0	0	0
CCCCC[C@](C)(O)/C=C/[C@@H]1[C@@H](C/C=C/CCCC(=O)O)[C@@H](O)C[C@H]1O	0	0	0	0	0	0	0	0	0	0	0	0	0	0
CC(C)(Oc1ccc(CCNC(=O)c2ccc(Cl)cc2)cc1)C(=O)O [BEZAFIBRATE]	0	0	0	0	0	0	1	0	0	0	0	0	1	0
NCCCCCC(=O)O [AMINOCAPROIC ACID]	0	0	0	0	0	0	0	0	0	0	0	0	0	0
C=CC(N)CCC(=O)O (stereo not drawn) [VIGABATRIN]	0	0	0	0	0	0	0	0	0	0	0	0	0	0
C[C@@H]1C[C@H]2[C@H]3[C@H]([C@@H](O)C[C@]2(C)[C@@]1(O)C(=O)CO)[C@@]1(C)C=CC(=O)C=C1C[C@H]3Cl [ALCLOMETASONE]	0	0	0	0	0	0	0	0	0	0	0	0	0	0
